The test system of experiment [1] is Tetranychus cinnabarinus mite eggs. Description: Activity against mite eggs, dipping method on bean seedling leaves. Particulars: for mortality at 0.01 µg/mL / mortality at 0.05 µg/mL / mortality at 0.1 µg/mL / mortality at 1 µg/mL / mortality at 10 µg/mL / mortality at 100 µg/mL / mortality at 200 µg/mL / mortality at 0.001 µg/mL / mortality at 0.5 µg/mL: Tetranychus cinnabarinus, 96 h, checked after 4 days; for mortality at 0.01 µg/mL: read-out: mortality of mite eggs (%), 0.01 mg/L; for mortality at 0.05 µg/mL: read-out: mortality of mite eggs (%), 0.05 mg/L; for mortality at 0.1 µg/mL: read-out: mortality of mite eggs (%), 0.1 mg/L; for mortality at 1 µg/mL: read-out: mortality of mite eggs (%), 1 mg/L; for mortality at 10 µg/mL: read-out: mortality of mite eggs (%), 10 mg/L; for mortality at 100 µg/mL: read-out: mortality of mite eggs (%), 100 mg/L; for mortality at 200 µg/mL: read-out: mortality of mite eggs (%), 200 mg/L; for mortality at 0.001 µg/mL: read-out: mortality of mite eggs (%), 0.001 mg/L; for mortality at 0.5 µg/mL: read-out: mortality of mite eggs (%), 0.5 mg/L. In kind it is in vivo. From the text: (§1) The assay examples are used to illustrate the acaricidal activity against Tetranychus cinnabarinus (mortality of mite larvae and mortality of mite eggs) of the compounds having the structure represented by formula (I), and the results are shown in tables 1 to 9, where mortality of mite larvae % =(number of dead mite larvae applied/total number of mite larvae applied)×100, and mortality of mite eggs %= (number of dead mite eggs applied/total number of mite eggs applied)×100.
Tetranychus cinnabarinus bred indoors on bean seedlings was used as a test subject by the dipping method. Move female adult mites onto the newly grown complete bean seedling leaves with two leaves, cut off the bean seedlings, place the bean seedlings in a greenhouse with illumination at 25° C. for laying eggs for 24 hours, then remove adult mites and keep mite eggs. After continuously culturing in the greenhouse for one day, completely soak the bean seedling leaves containing the acarid eggs into the prepared sample solution to be tested for 5-6 seconds by using tweezers, slightly throw off residual liquid, put the bean seedling leaves back to the culture cup, continuously culture for 4 days and then check the result. One of the plants was immersed in a solution containing no sample to be tested and the remaining additives were identical to the sample solution as a blank control. Each compound was replicated three times.

Experiment [2] has as its system Tetranychus cinnabarinus mite larvae. Description: Larvicidal activity test, dipping method on bean seedling leaves. In kind it is in vivo. Particulars: for acaricidal activity compared with etoxazole: Tetranychus cinnabarinus eggs and larvae, etoxazole as reference; for mortality at 0.01 µg/mL / mortality at 0.05 µg/mL / mortality at 0.1 µg/mL / mortality at 1 µg/mL / mortality at 10 µg/mL / mortality at 100 µg/mL / mortality at 200 µg/mL / mortality at 0.001 µg/mL / mortality at 0.5 µg/mL: Tetranychus cinnabarinus, 96 h, checked after 4 days; for mortality at 0.01 µg/mL: read-out: mortality of mite larvae (%), 0.01 mg/L; for mortality at 0.05 µg/mL: read-out: mortality of mite larvae (%), 0.05 mg/L; for mortality at 0.1 µg/mL: read-out: mortality of mite larvae (%), 0.1 mg/L; for mortality at 1 µg/mL: read-out: mortality of mite larvae (%), 1 mg/L; for mortality at 10 µg/mL: read-out: mortality of mite larvae (%), 10 mg/L; for mortality at 100 µg/mL: read-out: mortality of mite larvae (%), 100 mg/L; for mortality at 200 µg/mL: read-out: mortality of mite larvae (%), 200 mg/L; for larvicidal activity, times that of etoxazole: relative to etoxazole; for mortality at 0.001 µg/mL: read-out: mortality of mite larvae (%), 0.001 mg/L; for mortality at 0.5 µg/mL: read-out: mortality of mite larvae (%), 0.5 mg/L.
Excerpt: as §1
Tetranychus cinnabarinus bred indoors on bean seedlings was used as a test subject by the dipping method. Move adult mites onto the newly grown complete bean seedling leaves with two leaves, cut off the bean seedlings, place the bean seedlings in a greenhouse with illumination at 25° C. for laying eggs for 24 hours, then remove adult mites and keep mite eggs. And continuously culture in the greenhouse for 5 days until mite eggs hatch into mite larvae (ensuring that the number of the mites on each tested leaf is not less than 60).
Completely immerse the bean seedling leaves containing the mite larvae into the sample solution to be detected with Tween at the prepared concentration for 5-6 seconds by using tweezers, slightly throw off residual liquid, put the bean seedling leaves back to the culture cup, continuously culture for 4 days and check the result. One of the plants was immersed in a solution containing no sample to be tested and the remaining additives were identical to the sample solution as a blank control. Each compound was replicated three times.

Each structure is given as a SMILES string.

`Cc1cccc2ccn(Cc3ccc(C4COC(c5c(F)cccc5F)=N4)cc3)c12` (centres unmarked) [Compound R1-18]: in experiment [1], the mortality at 0.01 µg/mL came to 30%, the mortality at 0.05 µg/mL came out at 55%, the mortality at 0.1 µg/mL came out at 75% and the mortality at 1 µg/mL amounted to 80%. Besides, in experiment [1], the mortality at 10 µg/mL was determined as 100%, the mortality at 100 µg/mL was 100% and the mortality at 200 µg/mL is 100%. For the same molecule, in experiment [2], the “acaricidal activity compared with etoxazole” value is listed as “higher acaricidal activity than etoxazole”, the mortality at 0.01 µg/mL was 45%, the mortality at 0.05 µg/mL stood at 55% and the mortality at 0.1 µg/mL is 75%. In addition, in experiment [2], the mortality at 1 µg/mL was determined as 85%, the mortality at 10 µg/mL turned out to be 100%, the mortality at 100 µg/mL was found to be 100% and the mortality at 200 µg/mL was found to be 100%. Further, the “larvicidal activity, times that of etoxazole” value in experiment [2] was determined as 5 times.

On to `Fc1cccc(F)c1C1=NC(c2ccc(Cn3ccc4c(F)cccc43)cc2)CO1` (centres unmarked) [Compound R1-20], for which, in experiment [1], the mortality at 1 µg/mL amounted to 60%, the mortality at 10 µg/mL worked out at 80%, the mortality at 100 µg/mL is 100% and the mortality at 200 µg/mL was 100%. In addition, in experiment [2], the mortality at 1 µg/mL stood at 45%, the mortality at 10 µg/mL amounted to 70%, the mortality at 100 µg/mL worked out at 100% and the mortality at 200 µg/mL is 100%.

In the case of `Fc1ccc2ccn(Cc3ccc(C4COC(c5c(F)cccc5F)=N4)cc3)c2c1` (centres unmarked) [Compound R1-21], in experiment [1], the mortality at 1 µg/mL amounted to 30%, the mortality at 10 µg/mL was found to be 70%, the mortality at 100 µg/mL is 100% and the mortality at 200 µg/mL was found to be 100%. Further, in experiment [2], the mortality at 10 µg/mL amounted to 60%, the mortality at 100 µg/mL was 100% and the mortality at 200 µg/mL came out at 100%.

On to `Fc1ccc2c(ccn2Cc2ccc(C3COC(c4c(F)cccc4F)=N3)cc2)c1` (centres unmarked) [Compound R1-22], for which, in experiment [1], the mortality at 0.05 µg/mL is 45%, the mortality at 0.1 µg/mL was found to be 75%, the mortality at 1 µg/mL was found to be 85% and the mortality at 10 µg/mL was found to be 90%. In experiment [1], the mortality at 100 µg/mL came out at 98% and the mortality at 200 µg/mL was determined as 100%. Also, in experiment [2], the “acaricidal activity compared with etoxazole” value is reported as “higher acaricidal activity than etoxazole”, the mortality at 0.05 µg/mL came out at 45%, the mortality at 0.1 µg/mL was determined as 70% and the mortality at 1 µg/mL came out at 80%. Besides, in experiment [2], the mortality at 10 µg/mL was 85%, the mortality at 100 µg/mL was 100% and the mortality at 200 µg/mL stood at 100%.

On to `Fc1cccc(F)c1C1=NC(c2ccc(Cn3ccc4cc(Cl)ccc43)cc2)CO1` (centres unmarked) [Compound R1-23], for which, in experiment [1], the mortality at 1 µg/mL turned out to be 60%, the mortality at 10 µg/mL came to 75%, the mortality at 100 µg/mL was found to be 100% and the mortality at 200 µg/mL turned out to be 100%. In experiment [2], the mortality at 1 µg/mL stood at 50%, the mortality at 10 µg/mL was 80%, the mortality at 100 µg/mL amounted to 100% and the mortality at 200 µg/mL turned out to be 100%.

As for `Fc1cccc(F)c1C1=NC(c2ccc(Cn3ccc4cc(Br)ccc43)cc2)CO1` (centres unmarked) [Compound R1-24], in experiment [1], the mortality at 1 µg/mL amounted to 40%, the mortality at 10 µg/mL was found to be 80%, the mortality at 100 µg/mL turned out to be 100% and the mortality at 200 µg/mL turned out to be 100%. Further, in experiment [2], the mortality at 10 µg/mL worked out at 60%, the mortality at 100 µg/mL was determined as 100% and the mortality at 200 µg/mL was determined as 100%.

In the case of `COc1ccc2ccn(Cc3ccc(C4COC(c5c(F)cccc5F)=N4)cc3)c2c1` (centres unmarked) [Compound R1-25], in experiment [1], the mortality at 1 µg/mL was 40%, the mortality at 10 µg/mL is 65%, the mortality at 100 µg/mL came to 90% and the mortality at 200 µg/mL is 100%. Besides, in experiment [2], the mortality at 10 µg/mL came to 20%, the mortality at 100 µg/mL was found to be 70% and the mortality at 200 µg/mL stood at 80%.

For `COCc1ccc(C2COC(c3c(F)cccc3F)=N2)cc1` (centres unmarked) [Compound R2-1], in experiment [1], the mortality at 0.1 µg/mL is 60%, the mortality at 1 µg/mL came to 97%, the mortality at 10 µg/mL amounted to 100% and the mortality at 100 µg/mL is 100%. Also, the mortality at 200 µg/mL in experiment [1] turned out to be 100%. Further, in experiment [2], the mortality at 0.1 µg/mL stood at 50%, the mortality at 1 µg/mL was 85%, the mortality at 10 µg/mL was determined as 100% and the mortality at 100 µg/mL turned out to be 100%. Also, the mortality at 200 µg/mL in experiment [2] worked out at 100%.

Turning to `CCOCc1ccc(C2COC(c3c(F)cccc3F)=N2)cc1` (centres unmarked) [Compound R2-2], in experiment [1], the mortality at 0.001 µg/mL stood at 40%, the mortality at 0.01 µg/mL turned out to be 65%, the mortality at 0.1 µg/mL is 85% and the mortality at 0.5 µg/mL was found to be 90%. In addition, in experiment [1], the mortality at 1 µg/mL came out at 95%, the mortality at 10 µg/mL was 100%, the mortality at 100 µg/mL amounted to 100% and the mortality at 200 µg/mL came to 100%. In experiment [2], the “acaricidal activity compared with etoxazole” value is listed as “higher acaricidal activity than etoxazole”, the mortality at 0.001 µg/mL came out at 30%, the mortality at 0.01 µg/mL was 50% and the mortality at 0.1 µg/mL was found to be 80%. In experiment [2], the mortality at 0.5 µg/mL was 83%, the mortality at 1 µg/mL came out at 90%, the mortality at 10 µg/mL amounted to 90% and the mortality at 100 µg/mL was 100%. In addition, the mortality at 200 µg/mL in experiment [2] was found to be 100%.

Take `CCCOCc1ccc(C2COC(c3c(F)cccc3F)=N2)cc1` (centres unmarked) [Compound R2-3]: in experiment [1], the mortality at 0.001 µg/mL amounted to 50%, the mortality at 0.01 µg/mL turned out to be 77%, the mortality at 0.1 µg/mL was determined as 85% and the mortality at 0.5 µg/mL was determined as 92%. In addition, in experiment [1], the mortality at 1 µg/mL was 100%, the mortality at 10 µg/mL is 100%, the mortality at 100 µg/mL was determined as 100% and the mortality at 200 µg/mL turned out to be 100%. In addition, the “activity on mite eggs, times that of etoxazole” value in experiment [1] (relative to etoxazole) was found to be 105 times. Further, in experiment [2], the “acaricidal activity compared with etoxazole” value is given as “higher acaricidal activity than etoxazole”, the mortality at 0.001 µg/mL came out at 45%, the mortality at 0.01 µg/mL was 70% and the mortality at 0.1 µg/mL is 90%. In experiment [2], the mortality at 0.5 µg/mL stood at 91%, the mortality at 1 µg/mL was 95%, the mortality at 10 µg/mL is 97% and the mortality at 100 µg/mL turned out to be 100%. Further, in experiment [2], the mortality at 200 µg/mL was 100% and the “larvicidal activity, times that of etoxazole” value amounted to 58 times.

Consider `FCCOCc1ccc(C2COC(c3c(F)cccc3F)=N2)cc1` (centres unmarked) [Compound R2-4], for which, in experiment [1], the mortality at 0.1 µg/mL came out at 70%, the mortality at 1 µg/mL was 90%, the mortality at 10 µg/mL is 98% and the mortality at 100 µg/mL worked out at 100%. Further, the mortality at 200 µg/mL in experiment [1] came to 100%. In addition, in experiment [2], the mortality at 0.1 µg/mL was 70%, the mortality at 1 µg/mL came out at 85%, the mortality at 10 µg/mL came to 92% and the mortality at 100 µg/mL worked out at 100%. Also, the mortality at 200 µg/mL in experiment [2] amounted to 100%.

The record behind these values is patent US12588678B2, “Oxazoline compound, synthesis method therefor and application thereof” (NANKAI UNIVERSITY, priority 2019, dated 2026).
